Key:
[1] = tested on: activated primary fibroblasts WI38, IMR90 and HDF; experiment: sVEGF ELISA in activated primary fibroblasts; type: cell-based, human; conditions: fibroblasts activated with anti-CD3/anti-CD28 stimulated PBMCs, FGF-2 or TGFβ
Description: FIG. 5: USP7 inhibition decreased secreted VEGF levels in activated fibroblasts. The USP7-mediated decrease in VEGF secretion observed in the co-cultures can be solely attributed to modulation of secreted VEGF in primary fibroblasts.
(FIG. 4). […] During the wound healing process or following stimulation by acute or chronic inflammatory signals, fibroblasts acquire an activated phenotype (referred to as myofibroblasts). Once activated, myofibroblasts proliferate and migrate, show contractile activity, exert physical forces to modify tissue architecture and become transcriptionally active leading to the secretion of cytokines, chemokines and extra-cellular matrix (ECM) components. In the tumour microenvironment, the majority of residual fibroblasts become activated and are known as cancer associated fibroblasts (CAF). In order to generate a myofibroblast phenotype, WI38, IMR90 and HDF were co-cultured with anti-CD3/anti-CD28 stimulated PBMCs or were stimulated by FGF-2 or TGFβ. […] The USP7 inhibitor-mediated decrease in VEGF secretion was only observed in primary fibroblasts; immortalized lung fibroblasts (WI38-VA13) were insensitive to USP7 inhibitor treatment, probably due to the destabilized p53 in the SV-40 immortalized fibroblasts (FIG. 7).
(§1) For the co-culture experiments, 5×10^4 cancer cells were seeded in transwell in 0.5 mL complete growth medium and placed on the top of 0.1×10^6 fibroblasts plated in 12-well in 1 mL low serum growth media overnight. Following day cancer cells were washed with PBS and media replaced with reduced (1%) serum growth media. 0.5×10^6 PBMC were plated on top of fibroblasts, incubated for 45 min and activated with CD3 (1 μg/ml final concentration) and CD28 (5 μg/ml final concentration). […] Monoculture experiments, 0.1×10^6 cells were seeded in 12-well in 1 mL of complete growth media (cancer cells) or low serum growth media (fibroblasts) and incubated overnight. […] Afterwards, cell culture media was collected, cell debris were removed by centrifugation the concentration of VEGF in the cell culture supernatants was measured using the human/mouse VEGF immunoassay Quantikine ELISA kit (R&D systems, Minneapolis, Minn., USA) according to the manufacturer's instructions. For the intracellular VEGF detection, total protein concentration was determined by BCA (Pierce Chemical, USA) and VEGF levels determined using the same kit described above.

[2] = tested on: HT29, H1299, LNCaP and MCF-7 cells; experiment: sVEGF ELISA in cancer cells; type: cell-based, human; conditions: MCF-7, HT29, H1299, compared to vehicle-treated cells
Description: Levels of sVEGF released to cell culture media was measured by ELISA.
as §1

[3] = tested on: cancer cells, primary and immortalized fibroblasts; experiment: Cell proliferation assay (CellTiter-Glo viability); type: cell-based, human
Description: The functional impact of USP7-mediated decrease in VEGF secretion is not on fibroblast or cancer cell proliferation. […] After 72 hours cell viability was measured by Cell-Titer-Glo. The results were normalized to the control non-treated group (mean±SD, n=3).

CT-26 tumours [4] = experiment: Flow cytometry of tumour infiltrating immune cells, CT-26 model (AD-04); type: in vivo, mouse; conditions: dosed 10 days
Description: FIG. 32: USP7 inhibition modulates the tumour microenvironment immune compartment. […] Flow cytometry analysis of tumour infiltrating immune cells in the CT-26 syngeneic model dosed with the USP7 inhibitor for 10 days.
Harvested tumours were collected in HBSS medium, minced and incubated 30 minutes at 37° C. in non-enzymatic cell dissociation buffer followed by mechanical dissociation through a 70 μm filter. Viable cells were then enriched using Ficoll® gradient. All cells suspensions were count and one million viable cells were seeded in 96-well plates in 100 μL of Staining Buffer for acquisition. Non-specific binding was performed using mouse FcR blocking reagent. Viobility 405/452 Fixable Dye (Miltenyi Biotec) was used to assess cell viability. The antibodies directed against the CD45, CD335 (Nkp46), FoxP3 CD8a, CD4, CD3e, CD19, F4/80, CD11c, CD11 b (Miltenyi Biotec), Ly6G and Ly6C (Biolegend) were added. The stained cells were analyzed with a Fortessa X20 cytometer (BD Biosciences).

[5] = tested on: primary human dermal fibroblasts (HDF) co-cultured with stimulated PBMCs, with or without cancer cells (HT29 or H1299); conditions: inhibitor concentration of 300 nM, 48 hours
Description: Biomarker changes relative to the vehicle control-treated systems are presented as log-transformed ratio.
BioMAP systems were employed using primary human cells. […] Human neonatal foreskin fibroblasts (HDFn) from 3 donors were pooled and cultured according to the supplier's (Lonza, Inc., Allendale, N.J.) recommendation. Peripheral blood mononuclear cells (PBMC) were prepared from buffy coats from normal human donors according to standard methods. Autoimmune HDFSAg system consisted of primary human dermal fibroblasts (HDF) co-cultured with PBMCs stimulated with T-cell receptor (SAg) to model chronic T cell activation and inflammation. Stromal Oncology Colorectal Cancer and Non-Small Cell Lung Cancer (NSCLC) panels were composed of cancer cells (HT29 or H1299), HDF and PBMCs stimulated with SAg. This model captures the interactions between tumour cells, stimulated immune cells and the host stromal network. […] Afterwards, biomarkers were measured in supernatants from co-cultures using ELISA as following: MCP-1, VCAM-1, Collagen I, IP-10, MMP-1, sIL-10, sIL-17A, sIL-17F, sIL-2, sIL-6, SRB, sTGFb, sTNFa, sVEGF, IL-8, MIG, MCSF, uPAR, Col-III, IP-10, EGFR, HGF, Pal-1, PBMC Cytotoxicity, tPA, uPA, sGranzyme, sPGE2, slFg, Sil-13, sMDC, Collagen III, MMP-9, TIMP-2, CEACAM5, Keratin 20. Biomarker levels are presented as log-transformed ratio

RS4; 11 = experiment: RS4;11 cell EC50; type: cell-based; conditions: Homo sapiens
CT-26 tumours [6] = experiment: Histology and immunofluorescence of CT-26 tumours (ADC-159); type: in vivo, mouse
Description: FIG. 36: ADC-159 prevents tumour vessel maturation in CT-26 syngeneic mouse model in vivo. FFPE tumour blocks were prepared after 15 days of treatment with vehicle and ADC-159 and co-stained with endothelial cell marker CD31 (green), pericyte marker NG2 (red) and DAPI (blue; n=5 blocks/group). Mature blood vessels have fine branching positive for CD31 and NG2 staining (A, left image) which is lost when treated with USP7 inhibitor (B, right image).
FIG. 37: ADC-159 decreases tumour area and increases necrosis area in the CT-26 syngeneic mouse model in vivo. […] FFPE tumour blocks were prepared followed by quantification of tumour and necrosis using HALO software.
After rinsing with running water, the specimens were transferred to the Vacuum Tissue Processor (HistoCore PEARL, Leica) for dehydration, then embedded into FFPE blocks using Tissue embedding center (EG1150, Leica). FFPE blocks were sectioned with a manual rotary microtome (RM2235, Leica), 4 μm thickness/section. Sections were processed for staining with hematoxylin and eosin (H&E) or for immunofluorescent (IF) analysis. For IF sections were stained with primary antibodies specific for CD31 (abcam), NG2 (sigma) and cell nuclei were counterstained with DAPI. All stained sections were scanned with Pannoramic Digital Slide Scanners for 40× magnification (3[…], Pannoram ic SCAN). All the images were analyzed with HALOTM platform were tumour area and large areas of necrosis were quantified. Non-tumour tissue on the periphery was excluded.

PPB Fu (m) = type: in vitro ADME; conditions: mouse, plasma
LogD7.4 = type: physicochemical; conditions: pH 7.4
1A2 = 1A2 (Homo sapiens, UniProt P05177); experiment: Cyp inhibition 1A2; type: in vitro ADME; conditions: read-out: Cyps: 1A2
Chain of 1A2 (P05177 whole entry): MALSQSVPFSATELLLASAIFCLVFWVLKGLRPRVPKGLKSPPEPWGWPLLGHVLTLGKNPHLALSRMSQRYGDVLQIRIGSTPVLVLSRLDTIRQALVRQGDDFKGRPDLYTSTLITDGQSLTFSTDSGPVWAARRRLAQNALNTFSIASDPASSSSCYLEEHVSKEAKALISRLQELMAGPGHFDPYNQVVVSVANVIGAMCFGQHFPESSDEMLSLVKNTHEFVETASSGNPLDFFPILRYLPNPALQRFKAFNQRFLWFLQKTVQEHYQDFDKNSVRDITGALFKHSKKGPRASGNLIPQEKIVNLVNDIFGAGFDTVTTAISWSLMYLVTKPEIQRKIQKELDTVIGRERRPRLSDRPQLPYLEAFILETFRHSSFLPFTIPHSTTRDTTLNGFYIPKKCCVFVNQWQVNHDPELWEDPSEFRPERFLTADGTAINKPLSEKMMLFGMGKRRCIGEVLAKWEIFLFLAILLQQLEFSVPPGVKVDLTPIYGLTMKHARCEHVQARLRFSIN

PPB Fu (r) = type: in vitro ADME; conditions: rat, plasma
LM CLhep (m) = type: in vitro ADME, mouse

Compound	sVEGF protein levels [1]	sVEGF levels in supernatants of cancer cell lines [2]	sensitivity of cancer cell lines ([3]; HT29 and H1299 (data not shown))	sensitivity of cancer cell lines ([3]; LNCaP and MCF-7 (data not shown))	cell viability ([3]; high concentration, normoxia and hypoxia, 72 hours)	CD4 lymphocytes among TILs (CT-26 tumours [4])	cytotoxic T-lymphocytes among TILs (CT-26 tumours [4])	macrophages in myeloid cell infiltrate (CT-26 tumours [4])	decrease in secreted VEGF (sVEGF) [5]	EC50 (RS4; 11)	necrosis area at the tumour site (CT-26 tumours [6]; 100 mg/kg, compared to vehicle)	tumour area (CT-26 tumours [6]; 100 mg/kg, compared to vehicle)	tumour vessel formation (CD31/NG2 staining) (CT-26 tumours [6]; 15 days of treatment)	fraction unbound (PPB Fu (m))	LogD7.4 (LogD7.4)	IC50 (1A2)	fraction unbound (PPB Fu (r))	LM CLhep (m) (LM CLhep (m))
C[C@H](CC(=O)N1CCC(O)(Cn2cnc3c(-c4ccc(CN)cc4)n(C)nc3c2=O)CC1)c1ccccc1 [AD-04, (R)-3-(4-(Aminomethyl)phenyl)-6-((4-hydroxy-1-(3-phenylbutanoyl)piperidin-4-yl)methyl)-2-methyl-2H-pyrazolo[4,3-d]pyrimidin-7(6H)-one]	dose-dependent decrease	not significantly affected	insensitive	sensitive	do not affect cell viability	no significant change	significant increase	decrease	3 log fold	–	–	–	–	–	–	–	–	–
CC1(C(=O)N2CCC(O)(Cn3cnc4c(cc(Cl)n4-c4ccc5c(c4)CCO5)c3=O)CC2)CC1 [ADC-159, 6-Chloro-7-(2,3-dihydrobenzofuran-5-yl)-3-((4-hydroxy-1-(1-methylcyclopropane-1-carbonyl)piperidin-4-yl)methyl)-3,7-dihydro-4H-pyrrolo[2,3-d]pyrimidin-4-One]	–	–	–	–	–	–	–	–	–	165 nM	significant increase	significant reduction	prevents tumour vessel formation	0.1	2.5	> 20000 nM	0.12	55
